From patent publication US12128035B2, “Activating pyruvate kinase R” (Novo Nordisk Health Care AG, priority 2021, dated 2024)
“And” between values parts separate entries of the source, which are not always exact repeats. Equal entries are not always repeated.

Tests used:
[1] = Phase 1 SAD/MAD: safety (adverse events) in healthy volunteers; format: in vivo, human
Procedure: In this study, SAD/MAD cohorts are randomized (3 to 1) to receive Compound 1 or placebo (P). Compound 1 was evaluated first in 4 healthy SAD cohorts and 4 healthy MAD (14-day dosing period) cohorts. Based on the safety, and PK/PD profile from HS, Compound 1 is then evaluated in 1 SCD SAD cohort and 2 SCD MAD cohorts. Specifically, based on the safety and pharmacokinetic/pharmacodynamics (PK/PD) profile in healthy volunteer studies, Compound 1 is evaluated in patients (pts) with SCD, first in a single dose (SD or SAD) cohort and then in multiple-dose (MD or MAD) cohorts (14-day and 12-week). Safety assessments include AEs, vital signs, ECGs and laboratory parameters. PK/PD blood sampling was performed on Day 1 (SAD/MAD) and Day 14 (MAD) and up to 72 h after the last dose and at the end-of-study visit. PD parameters included 2,3-DPG, ATP, and p50 in all cohorts with additional PD studies (including oxygen scan) performed only in the SCD cohorts. PD parameters included 2,3-DPG, ATP, p50, RBC deformability with controlled deoxygenation and reoxygenation (Lorrca® oxygen scan) and varying osmolality (Lorrca® osmoscan)). To maintain study blind, pt identifiers were removed when needed.
Outcome Measures Primary Outcome Measures: • 1. Incidence, frequency, and severity of adverse events (AEs) per CTCAE v5.0 of a single ascending dose and multiple ascending doses of Compound 1 in adult healthy volunteers and SCD patients. Incidence of abnormal laboratory test results (clinical chemistry, endocrine hematology, urinalysis). Change from baseline in vital signs (blood pressure, respiratory rate, heart rate, and oral temperature). Incidence of treatment-emergent clinically significant abnormal findings in ECGs. • [Time Frame: Up to 3 weeks of monitoring] • 2. […] Area under the plasma concentration-time curve from time zero until the 24-hour time point (AUC0-24) • [Time Frame: Up to 3 weeks of testing] • 5. Area under the plasma concentration-time curve from time zero until last quantifiable time point (AUC0-last) • [Time Frame: Up to 3 weeks of testing] • 6. Area under the plasma concentration-time curve from time zero to infinity (AUC0-inf) • [Time Frame: Up to 3 weeks of testing] • 7. […] Apparent volume of distribution (Vd/F) • [Time Frame: Up to 3 weeks of testing] • 10. Terminal disposition rate constant (Lz) • [Time Frame: Up to 3 weeks of testing] • 11. […] Secondary Outcome Measures: • 12. Change from baseline in the levels of 2,3-diphosphoglycerate (DPG) and adenosine triphosphate (ATP) in the red blood cells (RBCs) of healthy volunteers and SCD patients after single and multiple doses of Compound 1. • [Time Frame: Up to 3 weeks of testing] • 13. […] Change from baseline heart rate after a single dose of Compound 1 in healthy volunteers and/or SCD subjects • [Time Frame: up to 7 days] • 15. Change from baseline PR after a single dose of Compound 1 in healthy volunteers and/or SCD subjects • [Time Frame: up to 7 days] • 16. Change from baseline QRS (AHR, APR, and AQRS) after a single dose of Compound 1 in healthy volunteers and/or SCD subjects • [Time Frame: up to 7 days] • 17. Change from baseline T-wave morphology after a single dose of Compound 1 in healthy volunteers and/or SCD subjects • [Time Frame: up to 7 days] Exploratory Outcome Measures: • 18. Effect of food on Cmax, AUC0-24/AUClast • 19. Effect of AUClast/AUC0-24, Cmax, minimum plasma concentration (Cmin), peak-to trough ratio, dose linearity, accumulation ratio on safety, PD, and hematologic parameters of interest, as assessed by exposure-response analyses • 20. Effect of 2,3-DPG reduction in RBCs on the oxyhemoglobin dissociation curve (p50; partial pressure of O2 at which 50% of hemoglobin is saturated with O2) after a single dose and after chronic dosing of Compound 1 • 21. Effect of chronic Compound 1 dosing on normal and SCD RBC deformability by osmotic gradient ektacytometry and oxygen gradient ektacytometry • 22. […]

[2] = target: T1, wt-PKR in mature human erythrocytes (Homo sapiens, UniProt P30613); test: Cell assay: PKR activation in human RBCs (Biovision Pyruvate Kinase Assay); format: cell-based; settings: 3 hr treatment
T1 construct: host or cells: purified human RBCs from donors
Procedure: The activation of wt-PKR by Compound 1 in mature human erythrocytes ex vivo was evaluated in purified RBCs purchased from Research Blood Components. Cells treated with Compound 1 for 3 hr in glucose-containing media were washed, lysed, and assayed using a Biovision Pyruvate Kinase Assay (K709-100). The assay was repeated multiple times to account for donor-to-donor variability and the relatively narrow dynamic range.

[3] = Phase 1: hematologic and hemolytic laboratory parameters in SCD patients; format: in vivo, human
Source text: Laboratory changes relative to pretreatment for each pt in the MD cohort as of Jul. In 2 of 3 SCD MD-1 pts treated with Compound 1/placebo (currently blinded), Hb increased by >1 g/dL, % reticulocytes decreased, and markers of hemolysis were improved after 14 days of treatment (compared to pre-treatment levels). Hematologic parameters returned to pre-treatment levels 4 to 7 days post-treatment (data not shown) without clinical AEs.
A median 1.2 g/dL Hb increase (range 0, 2.3) and a median 60% reticulocyte decrease (range −39%, −81%) over baseline were observed. The onset of the increase in Hb was rapid and continued to increase in most patients through the end of treatment, indicating the potential for additional improvement with extended dosing. […] A median 36% LDH decrease (range +18%, −57%) and a median 35% bilirubin decrease (range −7%, −63%) over baseline were observed, which is consistent with the hypothesis that Compound 1 improves RBC survival and reduces RBC turnover.

[4] = SCD MAD1, 300 mg once daily 14 days, of 7 patients

T1 sequence (P30613 whole entry): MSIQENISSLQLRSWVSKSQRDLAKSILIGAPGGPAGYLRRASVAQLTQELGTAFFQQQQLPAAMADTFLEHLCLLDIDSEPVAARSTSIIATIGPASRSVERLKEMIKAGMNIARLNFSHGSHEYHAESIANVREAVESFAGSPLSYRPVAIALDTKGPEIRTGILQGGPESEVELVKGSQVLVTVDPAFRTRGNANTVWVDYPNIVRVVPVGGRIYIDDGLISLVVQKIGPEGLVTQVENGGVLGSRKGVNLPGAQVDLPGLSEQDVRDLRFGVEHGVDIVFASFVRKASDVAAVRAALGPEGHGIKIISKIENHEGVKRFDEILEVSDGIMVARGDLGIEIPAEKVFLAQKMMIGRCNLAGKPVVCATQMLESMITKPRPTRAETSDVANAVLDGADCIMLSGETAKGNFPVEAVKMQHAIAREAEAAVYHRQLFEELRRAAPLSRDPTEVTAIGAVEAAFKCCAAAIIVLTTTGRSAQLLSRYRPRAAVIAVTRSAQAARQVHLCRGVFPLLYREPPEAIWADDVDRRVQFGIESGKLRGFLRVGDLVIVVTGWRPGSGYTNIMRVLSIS

## O=C([C@H](CO)c1ccccc1)N1CC2=C(C1)CN(S(=O)(=O)c1cnc3c(c1)OCCO3)C2 (single isomer, unassigned) [Compound 1]
[1]; HS receiving 14 days
  Grade 1 headache (most common AE): 28%
[1]; HS receiving a single dose
  Grade 1 headache (most common AE): 4%
[1]; HV MAD Compound 1 N = 36
  Any TEAE, n (%): 15 (42) n (%)
  Any grade 3 or greater TEAE, n (%): 0 n (%)
  Drug interruption, reduction, or discontinuation due to TEAE, n (%): 0 n (%)
[1]; HV MAD cohorts
  related TEAE of grade 2 or less: headache: 4 n
  related TEAE of grade 2 or less: palpitations: 1 n
  related TEAE of grade 2 or less: somnolence: 1 n
[1]; HV SAD Compound 1 N = 24
  Any TEAE, n (%): 5 (21) n (%)
  Any grade 3 or greater TEAE, n (%): 1 (4) n (%)
  Drug interruption, reduction, or discontinuation due to TEAE, n (%): 0 n (%)
[1]; HV SAD cohorts
  related TEAE of grade 2 or less: headache: 1 n
  related TEAE of grade 2 or less: transient ventricular tachycardia: 1 n
[1]; SAD and MAD cohorts of healthy volunteers
  serious adverse events / AEs leading to withdrawal: No serious adverse events (SAEs) or AEs leading to withdrawal were reported
[2]; mean of replicates
  Max − Min (%), Mean: < 100%
[2]; single replicates
  Max − Min (%): <125% and <150% and <100% and <50%
[3]; SCD MAD1, 300 mg once daily 14 days
  patients with >1 g/dL increase in hemoglobin: 6/7
[3]; SCD MAD1, 300 mg once daily 14 days (n = 7), range 0, 2.3
  median Hb increase over baseline: 1.2 g/dL
[3]; [4]
  patients with a decrease in reticulocytes: 7 and 7/7
  patients with a decrease in total bilirubin: 7
[3]; SCD MAD1, 300 mg once daily 14 days, range +18%, −57%
  median LDH decrease over baseline: 36%
[3]; SCD MAD1, 300 mg once daily 14 days, range −7%, −63%
  median bilirubin decrease over baseline: 35%
[3]; SCD MAD1, 300 mg once daily 14 days, range −39%, −81%
  median reticulocyte decrease over baseline: 60%
[3]; one SCD patient, 300 mg once daily, sustained through day 21, no hydroxyurea
  increase in Hb compared with pre-dose on day 1: > 2 g/dL
